Data set [1] in a line: physchem. The settings on record: pH 7.4.
For the next data set, the system named is SK-OV-3. The experiment in a line: cells. Format: cell-based, human. To be noted: Homo sapiens.
The nature of data set [2]: physchem. The settings on record: pH 7.4. This is another data set of the same source.
Where [3] appears, read: SK-OV-3, 96 h, read-out: SK-OV-3 pGI50 ± SEM (n) (converted).
The mark [4] stands for this setting: SK-OV-3, 96 h, CellTiter-Blue, geometric mean, read-out: SK-OV-3 GI50.

Converted amounts (≈) assume the structure as drawn. Read-outs that look alike come from different tables or passages of the source.

As a reminder, the kinetic solubility is solubility judged after dilution from a stock solution rather than from solid. As usually defined, the chromatographic logD is a lipophilicity value derived from retention on a column.

With `Cc1ccc(NC(=O)c2ccc3c(c2)OCCO3)cc1NC(=O)c1ccc2nc(CN3CCCC3C)ccc2c1` (racemic) [Compound 13, Racemic-N-(5-(2,3-Dihydrobenzo[b][1,4]dioxine-6-carboxamido)-2-methylphenyl)-2-((2-methylpyrrolidin-1-yl)methyl)quinoline-6-carboxamide], the solubility (kinetic) at 2 h, 100 µM in the data set “physchem [1]” came to 50 µM (≈ 26.8 µg/mL). In addition, the GI50 in the data set with SK-OV-3 (setting [3]) was 0.00708 µM; in the data set with SK-OV-3 (setting [4]) it was 0.0071 µM. This compound also displayed a chromatographic logD in “physchem [2]” of 2.3.

On to `Cc1ccc(NC(=O)c2ccc3c(c2)OCCO3)cc1NC(=O)c1ccc2nc(CN(C)C)ccc2c1` [Compound 12, N-(5-(2,3-Dihydrobenzo[b][1,4]dioxine-6-carboxamido)-2-methylphenyl)-2-((dimethylamino)methyl)quinoline-6-carboxamide], for which the kinetic solubility at 2 h, 100 µM in the data set “physchem [1]” stood at 50 µM (≈ 24.8 µg/mL). Also, the GI50 in the data set on SK-OV-3 (setting [3]) was 0.0117 µM; in the data set with SK-OV-3 (setting [4]), 0.012 µM. Also, in the data set “physchem [2]”, the chromatographic logD was 1.4.

With `Cc1ccc(NC(=O)c2ccc3c(c2)OCCO3)cc1NC(=O)c1ccc2nc(CN3CCCCC3)ccc2c1` [Compound 14, N-(5-(2,3-Dihydrobenzo[b][1,4]dioxine-6-carboxamido)-2-methylphenyl)-2-(piperidin-1-ylmethyl)quinoline-6-carboxamide], the kinetic solubility at 2 h, 100 µM in “physchem [1]” turned out to be 2 µM (≈ 1.07 µg/mL). In addition, the GI50 was 0.0219 µM with SK-OV-3 (setting [3]) and 0.073 µM in the data set with SK-OV-3 (setting [4]).

In the case of `O=C(Nc1ccc(Cl)c(NC(=O)c2ccc3nc(CN4CCNCC4)ccc3c2)c1)c1ccc2c(c1)OCCO2` [Compound 19, N-(2-Chloro-5-(2,3-dihydrobenzo[b][1,4]dioxine-6-carboxamido)phenyl)-2-(piperazin-1-ylmethyl)quinoline-6-carboxamide], the GI50 in the data set with SK-OV-3 (setting [3]) is 0.0115 µM; in the data set on SK-OV-3 (setting [4]) it was 0.012 µM.

On to `CN1CCN(Cc2ccc3cc(C(=O)Nc4cc(NC(=O)c5ccc6c(c5)OCCO6)ccc4Cl)ccc3n2)CC1` [Compound 20, N-(2-Chloro-5-(2,3-dihydrobenzo[b][1,4]dioxine-6-carboxamido)phenyl)-2-((4-methylpiperazin-1-yl)methyl)quinoline-6-carboxamide], for which the solubility (kinetic) at 2 h, 100 µM in “physchem [1]” worked out at 30 µM (≈ 17.2 µg/mL). For the same compound, the GI50 with SK-OV-3 (setting [3]) is 0.0191 µM; with SK-OV-3 (setting [4]) it was 0.019 µM. In “physchem [2]”, the chromatographic logD was 2.1.

The record behind these values is PMC10150365 (Journal of Medicinal Chemistry, 2023).
